According to the pKa sets of Baltruschat and Czodrowski (2020):

SMILES | pKa (basic group) | pKa (acidic group)
C#CCN(CC#C)CC#C | 3.04 | –
Cc1cc(Br)ccc1N | 3.58 | –
COc1ncnc2ccccc12 | 3.13 | –
Cc1cc(N)cc(C)c1C(=O)NCCN1CCOCC1 | 5.96 | –
c1ccc2cc3ncccc3cc2c1 | 4.92 | –
C[C@H]1[C@@H](N)[C@@H](C)[C@@H](N)[C@@H](C)[C@H]1N | 7.83 | –
Cc1cc[nH]c1C(=O)O | – | 5.1
CC1NCCc2c1[nH]c1ccc(Cl)cc21 (stereo not given) | – | 15.2
Cc1c2ccccc2c(CN2CCOCC2)c2ccccc12 | 6.6 | –
Cc1ccc(C(=S)Nc2ccccc2)cc1 | – | 11.5
Cn1cnc2ncncc21 | 2.29 | –
CCCN(CCO)CC(O)CC (stereo not given) | 9 | –
c1ccc(CN(CC2=NCCN2)c2ccccc2)cc1 | 10.1 | –
CCCCCCNCc1ccc(C)cc1 | 10.2 | –
CC1CCCC(C)(C)N1C (stereo not given) | 10.8 | –
CN(C)/C=N/c1ccccc1O | 7.41 | 11
N#CC(C(=O)O)c1ccccc1 (stereo not given) | – | 1.77
CCCCS | – | 10.8
Nc1cccc2cncnc12 | 2.81 | –
CC(=O)c1cc(C(=O)c2ccccc2)n[nH]1 | – | 9.01
Oc1c(Cl)cc(Cl)cc1C[NH+]1CCOCC1 | – | 5.67
O=C([O-])[C@]12CNCC[C@H]1O2 | 9.14 | –

SMILES | pKa (basic group) | pKa (acidic group)
Cc1ccc(S)cc1 | – | 6.47
CC[NH+](CC)CCCC(C)Nc1cc(OC)cc2cccnc12 (stereo not given) | 3.63 | –
CC(C)N(C(=S)S)C(C)C | – | 4.3
c1ccc(CSc2nc(SCc3ccccc3)c(-c3ccccc3)[nH]2)cc1 | 2.7 | 10.9
S=C1NC(=S)C(c2ccccc2)N1 (stereo not given) | -3.16 | 8.15
CC1(C)C(=O)NC(=O)C1(C)C | – | 9.7
CC(=O)c1ccc(N)cc1 | 2.27 | –
C/C=C(\Cl)C(=O)O | – | 3.22
[NH3+]CCCCCCCCCC(=O)O | – | 4.57
C=C(C)C(N)O (stereo not given) | 8 | –
Cn1c(=O)c2c([nH]c(=O)n2C)n(C)c1=O | – | 6
NCC/C=C/C(=O)[O-] | 9.95 | –
CP(=O)(Cc1ccccc1)c1ccccc1 (stereo not given) | -1.82 | –
C=C(C)C(=O)OCCNCC | 9.15 | –
CCOC(=O)c1ccccc1-n1nc(O)cc1-c1ccccc1 | – | 12.4
OC(O)c1ccccn1 | – | 12.8
[S-]c1ccc2ccccc2n1 | 10.2 | –
Cc1cc(-c2cc(C)n[nH]2)[nH]n1 | 2.8 | –
Nc1ccc(C(O)(c2ccccc2)c2ccc(N)cc2)cc1 | 5.83 | –
CNCC(=O)NCCc1c[nH]cn1 | 8.31 | –
CCOC(=O)c1cnc2ccccc2c1OCC | 3.88 | –
Cc1cccc(CCCCCCCC(=O)[O-])n1 | 7 | –

SMILES | pKa (basic group) | pKa (acidic group)
CC(C)(C)c1cc(N)cc(C(C)(C)C)c1 | 4.97 | –
Cc1cc([O-])nc(-n2nc(C)cc2O)n1 | 10 | –
CC(C)C(C(C)C)N(C)C | 10.1 | –
Cc1ccccc1NC(=N)Nc1ccccc1C | 9.67 | –
CCN(CC)CC(=O)[O-] | 10.5 | –
N[C@H]1C[C@H]2CCCC[C@@H]2C[C@@H]1[NH3+] | 6.68 | –
O=C([O-])c1ccc(O)c([N+](=O)[O-])c1 | – | 6.41
O=C([O-])CN=C1CCCCC1 | 9.48 | –
COc1ccc(O)c(C)c1 | – | 10.2
N#CC(C#N)=C(N)C(C#N)C#N | – | 2.58
CC(=O)N(c1ccccc1)c1nnc(S(N)(=O)=O)s1 | – | 7.32
CN(C)O | 5.2 | –
O=C1C[C@H](C(=O)O)[C@@H](C(=O)[O-])O1 | – | 3.82
NC[C@H]1CCCC[C@@H]1O | 10.2 | –
CNCCCNC | 10.7 | –
CCCCCC[NH2+]CCC(=O)O | – | 3.61
NC[C@@H](O)[C@H]1NC(N)=N[C@@H]1C(=O)[O-] | 11.9 | –
COc1ccc(-c2nc3nnc(SC)nc3[nH]2)c(OC)c1 | – | 7.69
CC1ONCc2ccccc21 (stereo not given) | 3.6 | –
O=S(=O)([O-])c1cc(O)c2[nH]ncc2c1 | – | 8
Cc1cc(N)c2ccccc2c1O | – | 10.1
Cc1cn2nc(-c3ccccc3)cc(C)c2n1 | 5.3 | –

SMILES | pKa (basic group) | pKa (acidic group)
CCN(CC#N)CC#N | 3.98 | –
Cc1ccccc1C(=NCCCN(C)C)c1ccccc1C | 8.7 | –
c1ccc(CNc2nccs2)cc1 | 5.15 | –
CCOC(=O)C1(c2ccccc2)CCN(C)CC1 | 8.6 | –
C=C(C)/C=C(\C)O | – | 10.4
O=C(O)C(F)c1ccccc1 (stereo not given) | – | 2.45
OC1C=CC=CC=C1 | -7 | –
CN(C)CC(=O)[O-] | 9.81 | –
[NH3+]c1ccc(-c2ncc(-c3ccc(Br)cc3)o2)cc1 | -0.05 | –
CS[C@H]1CCC[C@@H]1N(C)C | 8.85 | –
NNC(=O)C(F)(F)C1(F)OC(F)(F)C(F)(F)C1(F)F (stereo not given) | – | 8.26
Clc1ccc2[nH]nnc2c1 | – | 7.7
CC(C)c1cccnc1 | 5.72 | –
c1ccc(-c2ccnc3c2ccc2cccnc23)cc1 | 4.9 | –
N#CC(C#N)=NNc1ccccc1Cl | -0.77 | 5.84
CCc1c(O)nn(-c2ccccc2C(=O)[O-])c1C | – | 12.2
O=C(O)CCc1ccc([N+](=O)[O-])cc1 | – | 4.54
COC(=O)c1cccc(N)c1 | 3.55 | –
Nc1cc2ccccc2cc1O | – | 9.35
COc1cnnc2ccccc12 | 3.21 | –
